Literature values, collected in patent US6174531A, “Methods of preparation of bioginkgo” (priority 1998, dated 2001).
Where two headings read alike, the source gives them in different places.

Key:
[1] = system: PAF platelet membrane receptor; conditions: in vitro, literature
[2] = rats, literature
[3] = humans, literature

SMILES	specificity of inhibition of PAF binding to its platelet receptors [1]	IC50 ([1]; read-out: IC50, inhibition of PAF binding to its platelet receptors) [nM]	half-life compared with ginkgolide A [2]	half-life compared with ginkgolide A [3]
CC1C(=O)OC2C(O)C34C5CC(C(C)(C)C)C36C(OC(=O)C6O)OC4(C(=O)O5)C12O (stereo not drawn) [ginkgolide B]	highly specific	~100	longer half-life	longer half-life
C[C@@H]1C(=O)O[C@H]2C[C@@]34[C@H]5C[C@@H](C(C)(C)C)[C@]36[C@@H](OC(=O)[C@@H]6O)O[C@@]4(C(=O)O5)[C@]21O [ginkgolide A]	highly specific			
CC1C(=O)OC2C(O)C34C5OC(=O)C3(OC3OC(=O)C(O)C34C(C(C)(C)C)C5O)C12O (stereo not drawn) [ginkgolide C]	highly specific			
